Results taken from patent US20110237455A1, “ARRAY ANALYSIS FOR ONLINE DETECTION” (EPPENDORF AG, priority 2010, published 2011).
Entries after “also recorded” stand apart in the source; their conditions may differ. Blank lines part the entries; values can stand above or below the compound they belong to.

Key:
[1] = Absorbance spectrum of light absorbing agents; assay type: physicochemical; settings: light absorbing agent at 1%; for Absorbance spectrum (estimated min-max): estimated width of band covering around 90% of the dye absorbance
Text: (§1) Table 1 summarizes the properties of different light absorbing agents tested according to the invention. The Table presents the absorbance peak and the estimated width of the absorbance band, based on the experimental spectra covering around 90% of the dye absorbance. The intrinsic fluorescence of the agents at the emission wavelength of 570 nm (green channel) or at the emission of 666 nm (red channel) is indicated. Intrinsic fluorescence is expressed as the percentage of the fluorescence compared to cy3 fluorescence if present at 1 μM for green channel (=100%) or Oyster645 fluorescence if present at 1 μM for red channel (=100%). Experimental details are given in example 4.

[2] = test system: SuperSalt Taq Polymerase; experiment: Compatibility of dyes with PCR amplification (no inhibition of the PCR); assay type: biochemical; settings: highest tested concentration which did not inhibit the PCR
Method: The Table gives the upper concentration of the agent at which there is no inhibition of the PCR. Two concentrations of Taq polymerase were compared: 5 and 10 units. Experimental details are given in example 3.
PCR was designed for the amplification of the 35 promoter element of DNA sample of a genetically modified organism (GMO).
For each tested light absorbing agent, PCR were performed with different concentrations of agent: 0.005, 0.01, 0.02, 0.05, 0.1, 0.5, 1 and 2% and either 5 U or 10 U of Taq polymerase in PCR mix. Controls tubes were performed without light absorbing agent with 5 U or 10 U of enzyme.
The PCR performed in PCR tubes in a thermocycler (Eppendorf, Hamburg, Germany). Samples were pre incubated for 10 min at 25° C. and then were first denatured at 94° C. for 3 min. Then 40 cycles of amplification were performed consisting of 30 sec at 95° C., 90 sec at 60° C. and 30 sec at 72° C.
After PCR, 1 μL of the PCR product was analyzed by electrophoresis (Agilent Technologies, 2100 Bioanalyzer). The expected size of the amplicon was 79 bp.

[3] = Intrinsic fluorescence of light absorbing agents at the emission wavelengths (green/red channel); assay type: physicochemical; settings: for Intrinsic fluorescence (emission 666 nm) in % / Intrinsic fluorescence (emission 570 nm) in %: agent at 1%; for Intrinsic fluorescence (emission 666 nm) in %: compared to Oyster645 fluorescence at 1 μM (=100%); for Fluorescence at the emission wavelength of 570 nm (in words) / Intrinsic fluorescence (emission 570 nm) in %: green channel; for Intrinsic fluorescence (emission 570 nm) in %: compared to cy3 fluorescence at 1 μM (=100%)
Text: This concept is exemplified in Table 1. The dye Azure A is a good example. It can be used for the reduction of the fluorescence of a solution at the excitation/emission wavelength of 532/570 (green channel). […] However, the dye is fluorescent at the emission wavelength of 666 nm used in the red channel.
The dye Azure A is thus not capable of reducing the fluorescent of the solution beyond the intrinsic fluorescence of the light absorbing agent at the emission wavelength in the red channel. In presence of this agent, the fluorescence is about 38% (data not shown) the fluorescence value of the solution in the absence of light absorbing agent (=100%).
as §1

Compound: CN(C)c1ccc2nc3ccc(N)cc3[s+]c2c1.[Cl-] [(E) Azure A, Azure A]
Absorbance spectrum peak [1]: 636 nm
Absorbance spectrum (estimated min-max) [1]: 450-700
Intrinsic fluorescence (emission 666 nm) in % ([3]; red channel): 38%
Fluorescence at the emission wavelength of 570 nm (in words) [3]: does not fluoresce
Fluorescence at the emission wavelength of 666 nm (in words) ([3]; red channel): fluorescent
Fluorescence of the solution in presence of the agent ([3]; red channel, solution without light absorbing agent = 100%, data not shown): about 38%

Compound: CCN(Cc1cccc(S(=O)(=O)[O-])c1)c1ccc(C(=C2C=CC(=[N+](CC)Cc3cccc(S(=O)(=O)[O-])c3)C=C2)c2ccccc2S(=O)(=O)[O-])cc1.[Na+].[Na+] [(L) E133, E133]
Absorbance spectrum peak [1]: 635 nm
Absorbance spectrum (estimated min-max) [1]: 525-690
Intrinsic fluorescence (emission 666 nm) in % ([3]; red channel): 33%
Fluorescence at the emission wavelength of 666 nm (in words) ([3]; red channel): shows a basal fluorescence; also recorded: fluorescent
Maximum concentration in PCR (%) with 5 U Taq polymerase [2]: 0.05%
Maximum concentration in PCR (%) with 10 U Taq polymerase [2]: 0.1%

Compound: Blue Dextran [(B) Blue Dextran]
Maximum concentration in PCR (%) with 5 U Taq polymerase [2]: 0.5%
Maximum concentration in PCR (%) with 10 U Taq polymerase [2]: 1%

Compound: Brilliant Blue [(F) Brilliant Blue]
Absorbance spectrum peak [1]: 585 nm
Absorbance spectrum (estimated min-max) [1]: 500-690

Compound: Ferritin [(H) Ferritin]
Absorbance spectrum peak [1]: (no peak)
Absorbance spectrum (estimated min-max) [1]: below 500
Intrinsic fluorescence (emission 570 nm) in % [3]: 40%
Intrinsic fluorescence (emission 666 nm) in % ([3]; red channel): 15%
Fluorescence at the emission wavelength of 570 nm (in words) [3]: fluorescent
Fluorescence at the emission wavelength of 666 nm (in words) ([3]; red channel): fluorescent

Compound: Melanine [(M) Melanine]
Absorbance spectrum (estimated min-max) [1]: below 700

Now from value to compound:

Absorbance spectrum peak [1]: 609 nm
Absorbance spectrum (estimated min-max) [1]: 525-675
Maximum concentration in PCR (%) with 5 U Taq polymerase [2]: 0.05%
Compound: O=C1/C(=C2\Nc3ccc(S(=O)(=O)[O-])cc3C2=O)Nc2ccc(S(=O)(=O)[O-])cc21.[Na+].[Na+] [(C) E132, E132]

Absorbance spectrum peak [1]: 508 nm
Absorbance spectrum (estimated min-max) [1]: <400-585
Intrinsic fluorescence (emission 570 nm) in % [3]: 18%
Intrinsic fluorescence (emission 666 nm) in % ([3]; red channel): 18%
Fluorescence at the emission wavelength of 570 nm (in words) [3]: fluorescent
Fluorescence at the emission wavelength of 666 nm (in words) ([3]; red channel): fluorescent
Compound: O=S(=O)([O-])c1cc(S(=O)(=O)[O-])c2c(N=Nc3ccc(S(=O)(=O)[O-])c4ccccc34)c(O)ccc2c1.[Na+].[Na+].[Na+] [(G) E124, E124]

Absorbance spectrum peak [1]: 571 nm
Absorbance spectrum (estimated min-max) [1]: 475-670
Maximum concentration in PCR (%) with 5 U Taq polymerase [2]: 0.05%
Maximum concentration in PCR (%) with 10 U Taq polymerase [2]: 0.1%
Compound: CC(=O)Nc1ccc(S(=O)(=O)[O-])c2cc(S(=O)(=O)[O-])c(N=Nc3ccc(N=Nc4ccc(S(=O)(=O)[O-])cc4)c4ccc(S(=O)(=O)[O-])cc34)c(O)c12.[Na+].[Na+].[Na+].[Na+] [(J) Black Brilliant, Black Brilliant]

Absorbance spectrum peak [1]: 565 nm
Absorbance spectrum (estimated min-max) [1]: <400-675
Maximum concentration in PCR (%) with 5 U Taq polymerase [2]: 0.05%
Maximum concentration in PCR (%) with 10 U Taq polymerase [2]: 0.1%
Compound: Black Intense [(A) Black Intense]

Absorbance spectrum peak [1]: 635 nm
Absorbance spectrum (estimated min-max) [1]: 525-690
Intrinsic fluorescence (emission 666 nm) in % ([3]; red channel): 47%
Fluorescence at the emission wavelength of 666 nm (in words) ([3]; red channel): fluorescent
Maximum concentration in PCR (%) with 5 U Taq polymerase [2]: 0.05%
Maximum concentration in PCR (%) with 10 U Taq polymerase [2]: 0.1%
Compound: Blue Intense [(K) Blue Intense]
